This is an account of results in article PMC11278568, “Implementation of Spore Display in Paenibacillus polymyxa with Different Hydrolytic Enzymes” (Microorganisms, 2024).

For assay [1], the target named is T1, Lip3 (Paenibacillus polymyxa, UniProt A0ABX2ZB39).
T1 construct: gene A7312_04500; fused via GGGGGSGGGGG linker to P. polymyxa CotE spore-coat anchor; gene amplified from DSM 365 genome (CP141264); printed NF024107.3 is a family model
T1 sequence (A0ABX2ZB39 1-335): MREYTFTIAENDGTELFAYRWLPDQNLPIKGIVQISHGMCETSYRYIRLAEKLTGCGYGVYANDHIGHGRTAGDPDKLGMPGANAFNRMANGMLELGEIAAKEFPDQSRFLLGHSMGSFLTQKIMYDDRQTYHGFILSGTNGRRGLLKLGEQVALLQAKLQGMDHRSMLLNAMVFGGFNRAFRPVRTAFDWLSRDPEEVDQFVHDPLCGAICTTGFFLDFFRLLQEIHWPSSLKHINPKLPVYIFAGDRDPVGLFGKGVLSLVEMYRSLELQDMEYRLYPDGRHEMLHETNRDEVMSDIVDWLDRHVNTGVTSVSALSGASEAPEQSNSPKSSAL
As to the kind of experiment: p-nitrophenol release, […] nm, […] h. Type of assay: cell-based. As to conditions: enzyme displayed on spores (immobilised), OD600 1; 1 mM substrate; 50 mM Tris-HCl pH 7.5; 4-70 °C.

Assay [2] is described as follows: p-nitrophenol release, […] nm, […] h. It counts as cell-based, Paenibacillus polymyxa. Conditions: enzyme displayed on spores (immobilised), OD600 1; 1 mM substrate; 50 mM Tris-HCl pH 7.5; 4-70 °C; side activity of the synthase.

As for `CCCCCCCC(=O)Oc1ccc([N+](=O)[O-])cc1` [C8, 4-Nitrophenyl-octanoate], the “p-nitrophenol release, 410 nm, 1 h” value in assay [1] is reported as “The displayed Lip3 showed higher hydrolysis activity with rising temperature”; in assay [2] it was “this enzyme showed hydrolytic activity for p-nitrophenyl caprylate (pNPC, C8)”.
